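Results reflect a 48-hour exposure of cells in 96-well plates to compound at five concentrations. Abbreviation: GI50, concentration required for 50% inhibition of growth. TGI: total growth inhibition.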
Tests used:
Assay in all cases: inhibition of tumour cell growth, NCI panel, 48 h
MCF7 breast = system: MCF7 breast
HS 578T breast = system: HS 578T breast
NCI-H226 lung = system: NCI-H226 lung
OVCAR-5 ovarian = system: OVCAR-5 ovarian
NCI-H23 lung = system: NCI-H23 lung
SF-295 CNS = system: SF-295 CNS
PC-3 prostate = system: PC-3 prostate
SK-MEL-28 melanoma = system: SK-MEL-28 melanoma
UACC-62 melanoma = system: UACC-62 melanoma
LOX IMVI melanoma = system: LOX IMVI melanoma
M14 melanoma = system: M14 melanoma
KM12 colon = system: KM12 colon
DU-145 prostate = system: DU-145 prostate
HCT-15 colon = system: HCT-15 colon
SF-268 CNS = system: SF-268 CNS
K-562 leukemia = system: K-562 leukemia
MALME-3M melanoma = system: MALME-3M melanoma
HL-60(TB) leukemia = system: HL-60(TB) leukemia
NCI-H522 lung = system: NCI-H522 lung
OVCAR-8 ovarian = system: OVCAR-8 ovarian
TK-10 renal = system: TK-10 renal
SK-MEL-5 melanoma = system: SK-MEL-5 melanoma
HT29 colon = system: HT29 colon
SK-OV-3 ovarian = system: SK-OV-3 ovarian
UO-31 renal = system: UO-31 renal
SNB-75 CNS = system: SNB-75 CNS
RPMI-8226 leukemia = system: RPMI-8226 leukemia
NCI-H460 lung = system: NCI-H460 lung
SNB-19 CNS = system: SNB-19 CNS
OVCAR-3 ovarian = system: OVCAR-3 ovarian
SW-620 colon = system: SW-620 colon
MDA-MB-435 = system: MDA-MB-435
CCRF-CEM leukemia = system: CCRF-CEM leukemia
U251 CNS = system: U251 CNS
HCT-116 colon = system: HCT-116 colon
EKVX NSCLC = system: EKVX NSCLC
A498 renal = system: A498 renal
UACC-257 melanoma = system: UACC-257 melanoma
NCI/ADR-RES ovarian = system: NCI/ADR-RES ovarian
HOP-62 NSCLC = system: HOP-62 NSCLC
SN12C renal = system: SN12C renal
SF-539 CNS = system: SF-539 CNS
SR leukemia = system: SR leukemia
MOLT-4 leukemia = system: MOLT-4 leukemia
ACHN renal = system: ACHN renal
COLO 205 colon = system: COLO 205 colon
IGROV1 ovarian = system: IGROV1 ovarian
786-0 renal = system: 786-0 renal
MDA-MB-231 breast = system: MDA-MB-231 breast
BT-549 breast = system: BT-549 breast
A549 NSCLC = system: A549 NSCLC
CAKI-1 renal = system: CAKI-1 renal
HCC-2998 colon = system: HCC-2998 colon
SK-MEL-2 melanoma = system: SK-MEL-2 melanoma
OVCAR-4 ovarian = system: OVCAR-4 ovarian
RXF 393 renal = system: RXF 393 renal

SMILES: Cn1cc(-c2ccc(-c3cn(C)c4ccc(Cl)cc34)s2)c2cc(Cl)ccc21
- GI50 (MCF7 breast): > 100 µM
- TGI (MCF7 breast): > 100 µM
- GI50 (HS 578T breast): > 100 µM
- TGI (HS 578T breast): > 100 µM
- GI50 (NCI-H226 lung): > 100 µM
- TGI (NCI-H226 lung): > 100 µM
- GI50 (OVCAR-5 ovarian): > 100 µM
- TGI (OVCAR-5 ovarian): > 100 µM
- GI50 (NCI-H23 lung): > 100 µM
- TGI (NCI-H23 lung): > 100 µM
- GI50 (SF-295 CNS): > 100 µM
- TGI (SF-295 CNS): > 100 µM
- GI50 (PC-3 prostate): > 100 µM
- TGI (PC-3 prostate): > 100 µM
- GI50 (SK-MEL-28 melanoma): > 100 µM
- TGI (SK-MEL-28 melanoma): > 100 µM
- GI50 (UACC-62 melanoma): > 100 µM
- TGI (UACC-62 melanoma): > 100 µM
- GI50 (LOX IMVI melanoma): > 100 µM
- TGI (LOX IMVI melanoma): > 100 µM
- GI50 (M14 melanoma): > 100 µM
- TGI (M14 melanoma): > 100 µM
- GI50 (KM12 colon): > 100 µM
- TGI (KM12 colon): > 100 µM
- GI50 (DU-145 prostate): > 100 µM
- TGI (DU-145 prostate): > 100 µM
- GI50 (HCT-15 colon): > 100 µM
- TGI (HCT-15 colon): > 100 µM
- GI50 (SF-268 CNS): > 100 µM
- TGI (SF-268 CNS): > 100 µM
- GI50 (K-562 leukemia): > 100 µM
- TGI (K-562 leukemia): > 100 µM
- GI50 (MALME-3M melanoma): > 100 µM
- TGI (MALME-3M melanoma): > 100 µM
- GI50 (HL-60(TB) leukemia): > 100 µM
- TGI (HL-60(TB) leukemia): > 100 µM
- GI50 (NCI-H522 lung): > 100 µM
- TGI (NCI-H522 lung): > 100 µM
- GI50 (OVCAR-8 ovarian): > 100 µM
- TGI (OVCAR-8 ovarian): > 100 µM
- GI50 (TK-10 renal): > 100 µM
- TGI (TK-10 renal): > 100 µM
- GI50 (SK-MEL-5 melanoma): > 100 µM
- TGI (SK-MEL-5 melanoma): > 100 µM
- GI50 (HT29 colon): > 100 µM
- TGI (HT29 colon): > 100 µM
- GI50 (SK-OV-3 ovarian): > 100 µM
- TGI (SK-OV-3 ovarian): > 100 µM
- GI50 (UO-31 renal): > 100 µM
- TGI (UO-31 renal): > 100 µM
- GI50 (SNB-75 CNS): > 100 µM
- TGI (SNB-75 CNS): > 100 µM
- GI50 (RPMI-8226 leukemia): > 100 µM
- TGI (RPMI-8226 leukemia): > 100 µM
- GI50 (NCI-H460 lung): > 100 µM
- TGI (NCI-H460 lung): > 100 µM
- GI50 (SNB-19 CNS): > 100 µM
- TGI (SNB-19 CNS): > 100 µM
- GI50 (OVCAR-3 ovarian): > 100 µM
- TGI (OVCAR-3 ovarian): > 100 µM
- GI50 (SW-620 colon): > 100 µM
- TGI (SW-620 colon): > 100 µM
- GI50 (MDA-MB-435): > 100 µM
- TGI (MDA-MB-435): > 100 µM
- GI50 (CCRF-CEM leukemia): > 100 µM
- TGI (CCRF-CEM leukemia): > 100 µM
- GI50 (U251 CNS): > 100 µM
- TGI (U251 CNS): > 100 µM
- GI50 (HCT-116 colon): > 100 µM
- TGI (HCT-116 colon): > 100 µM
- GI50 (EKVX NSCLC): > 100 µM
- TGI (EKVX NSCLC): > 100 µM
- GI50 (A498 renal): > 100 µM
- TGI (A498 renal): > 100 µM
- GI50 (UACC-257 melanoma): > 100 µM
- TGI (UACC-257 melanoma): > 100 µM
- GI50 (NCI/ADR-RES ovarian): > 100 µM
- TGI (NCI/ADR-RES ovarian): > 100 µM
- GI50 (HOP-62 NSCLC): > 100 µM
- TGI (HOP-62 NSCLC): > 100 µM
- GI50 (SN12C renal): > 100 µM
- TGI (SN12C renal): > 100 µM
- GI50 (SF-539 CNS): > 100 µM
- TGI (SF-539 CNS): > 100 µM
- GI50 (SR leukemia): > 100 µM
- TGI (SR leukemia): > 100 µM
- GI50 (MOLT-4 leukemia): > 100 µM
- TGI (MOLT-4 leukemia): > 100 µM
- GI50 (ACHN renal): > 100 µM
- TGI (ACHN renal): > 100 µM
- GI50 (COLO 205 colon): > 100 µM
- TGI (COLO 205 colon): > 100 µM
- GI50 (IGROV1 ovarian): > 100 µM
- TGI (IGROV1 ovarian): > 100 µM
- GI50 (786-0 renal): > 100 µM
- TGI (786-0 renal): > 100 µM
- GI50 (MDA-MB-231 breast): > 100 µM
- TGI (MDA-MB-231 breast): > 100 µM
- GI50 (BT-549 breast): > 100 µM
- TGI (BT-549 breast): > 100 µM
- GI50 (A549 NSCLC): > 100 µM
- TGI (A549 NSCLC): > 100 µM
- GI50 (CAKI-1 renal): > 100 µM
- TGI (CAKI-1 renal): > 100 µM
- GI50 (HCC-2998 colon): > 100 µM
- TGI (HCC-2998 colon): > 100 µM
- GI50 (SK-MEL-2 melanoma): > 100 µM
- TGI (SK-MEL-2 melanoma): > 100 µM
- GI50 (OVCAR-4 ovarian): > 100 µM
- TGI (OVCAR-4 ovarian): > 100 µM
- GI50 (RXF 393 renal): 70.3 µM
- TGI (RXF 393 renal): > 100 µM

From PubChem BioAssay (NCI)
